Measurements from ChEMBL document CHEMBL4052635, “Discovery of novel antitumor nitric oxide-donating β-elemene hybrids through inhibiting the PI3K/Akt pathway” (Eur J Med Chem, 2017).
The source made the active and inactive calls. The calls are words filed in the database; no cut-off is given here.

Experiments:
Homo sapiens [1] = species on record: Homo sapiens; assay: Inhibition of PI3K/Akt activation in human U87 cells assessed as decrease in Bcl-2 protein expression after 72 hrs by Western blot method; format: cell-based
SGC-7901 = assay: Antiproliferative activity against human SGC7901 cells after 72 hrs by MTT assay; format: functional, cell-based; conditions: SGC-7901, 72 h
HeLa = assay: Antiproliferative activity against human HeLa cells after 72 hrs by MTT assay; format: functional, cell-based
[2] = Antiproliferative activity against human U87 cells after 72 hrs by MTT assay; format: functional, cell-based, U-87MG ATCC; conditions: U-87 MG
L02 = assay: Cytotoxicity against human LO2 cells assessed as reduction in cell viability after 72 hrs by MTT assay; format: cell-based; conditions: L02, 72 h
[3] = Induction of NO production at 100 uM in presence of 5.0 mM L-cysteine incubated for 120 mins measured every 15 mins by Griess assay
U-87MG ATCC = assay: Antiproliferative activity against human U87 cells after 72 hrs in presence of NO scavenger hemoglobin/PTIO by MTT assay; format: functional, cell-based
[4] = Cell cycle arrest in human U87 cells assessed as accumulation at G1 phase at 0.5 nM after 72 hrs by propidium iodide staining based flow cytometry (reference value: 54.11%); format: functional, U-87MG ATCC
[5] = Cell cycle arrest in human U87 cells assessed as accumulation at G1 phase at 1 nM after 72 hrs by propidium iodide staining based flow cytometry (reference value: 54.11%); format: functional, U-87MG ATCC
[6] = Cell cycle arrest in human U87 cells assessed as accumulation at G1 phase at 2 nM after 72 hrs by propidium iodide staining based flow cytometry (reference value: 54.11%); format: functional, U-87MG ATCC
[7] = Cell cycle arrest in human U87 cells assessed as accumulation at G2 phase at 0.5 nM after 72 hrs by propidium iodide staining based flow cytometry (reference value: 18.86%); format: functional, U-87MG ATCC
[8] = Cell cycle arrest in human U87 cells assessed as accumulation at G2 phase at 1 nM after 72 hrs by propidium iodide staining based flow cytometry (reference value: 18.86%); format: functional, U-87MG ATCC
[9] = Cell cycle arrest in human U87 cells assessed as accumulation at G2 phase at 2 nM after 72 hrs by propidium iodide staining based flow cytometry (reference value: 18.86%); format: functional, U-87MG ATCC
[10] = Cell cycle arrest in human U87 cells assessed as accumulation at S phase at 0.5 nM after 72 hrs by propidium iodide staining based flow cytometry (reference value: 27.03%); format: functional, U-87MG ATCC
[11] = Cell cycle arrest in human U87 cells assessed as accumulation at S phase at 1 nM after 72 hrs by propidium iodide staining based flow cytometry (reference value: 27.03%); format: functional, U-87MG ATCC
[12] = Cell cycle arrest in human U87 cells assessed as accumulation at S phase at 2 nM after 72 hrs by propidium iodide staining based flow cytometry (reference value: 27.03%); format: functional, U-87MG ATCC
[13] = Induction of apoptosis in human U87 cells assessed as viable cells at 0.5 nM measured after 72 hrs by Annexin V-APC/7-AAD staining based flow cytometry (reference value: 92.71%); format: functional, U-87MG ATCC; conditions: U-87 MG, read-out: Activity
[14] = Induction of apoptosis in human U87 cells assessed as viable cells at 1 nM measured after 72 hrs by Annexin V-APC/7-AAD staining based flow cytometry (reference value: 92.71%); format: functional, U-87MG ATCC; conditions: U-87 MG, read-out: Activity
[15] = Induction of apoptosis in human U87 cells assessed as viable cells at 2 nM measured after 72 hrs by Annexin V-APC/7-AAD staining based flow cytometry (reference value: 92.71%); format: functional, U-87MG ATCC; conditions: U-87 MG, read-out: Activity
[16] = Induction of apoptosis in human U87 cells assessed as early apoptotic cells at 0.5 nM measured after 72 hrs by Annexin V-APC/7-AAD staining based flow cytometry (reference value: 3.82%); format: functional, U-87MG ATCC
[17] = Induction of apoptosis in human U87 cells assessed as early apoptotic cells at 1 nM measured after 72 hrs by Annexin V-APC/7-AAD staining based flow cytometry (reference value: 3.82%); format: functional, U-87MG ATCC
[18] = Induction of apoptosis in human U87 cells assessed as early apoptotic cells at 2 nM measured after 72 hrs by Annexin V-APC/7-AAD staining based flow cytometry (reference value: 3.82%); format: functional, U-87MG ATCC
[19] = Induction of apoptosis in human U87 cells assessed as late apoptotic cells at 0.5 nM measured after 72 hrs by Annexin V-APC/7-AAD staining based flow cytometry (reference value: 3.02%); format: functional, U-87MG ATCC
[20] = Induction of apoptosis in human U87 cells assessed as late apoptotic cells at 1 nM measured after 72 hrs by Annexin V-APC/7-AAD staining based flow cytometry (reference value: 3.02%); format: functional, U-87MG ATCC
[21] = Induction of apoptosis in human U87 cells assessed as late apoptotic cells at 2 nM measured after 72 hrs by Annexin V-APC/7-AAD staining based flow cytometry (reference value: 3.02%); format: functional, U-87MG ATCC
[22] = Induction of apoptosis in human U87 cells assessed as necrotic cells at 0.5 nM measured after 72 hrs by Annexin V-APC/7-AAD staining based flow cytometry (reference value: 0.44%); format: functional, U-87MG ATCC
[23] = Induction of apoptosis in human U87 cells assessed as necrotic cells at 1 nM measured after 72 hrs by Annexin V-APC/7-AAD staining based flow cytometry (reference value: 0.44%); format: functional, U-87MG ATCC
[24] = Induction of apoptosis in human U87 cells assessed as necrotic cells at 2 nM measured after 72 hrs by Annexin V-APC/7-AAD staining based flow cytometry (reference value: 0.44%); format: functional, U-87MG ATCC
Homo sapiens [25] = species on record: Homo sapiens; assay: Inhibition of PI3K/Akt activation in human U87 cells assessed as increase in pro-apoptotic Bax protein expression after 72 hrs by Western blot method; format: cell-based
Homo sapiens [26] = species on record: Homo sapiens; assay: Inhibition of PI3K/Akt activation in human U87 cells assessed as increase in caspase-3 level after 72 hrs by Western blot method; format: cell-based
[27] = biological target: RAC-alpha serine/threonine-protein kinase (Homo sapiens) (UniProt P31749); assay: Inhibition of Akt phosphorylation in human U87 cells after 72 hrs by Western blot method; format: cell-based
H22 [28] = assay: Antitumor activity against […] cells xenografted in ICR mouse assessed as tumor growth inhibition at 30 mg/kg, iv qd for 3 weeks relative to control; format: functional; conditions: 504 h, read-out: TGI
H22 [29] = assay: Antitumor activity against […] cells xenografted in ICR mouse assessed as tumor growth inhibition at 60 mg/kg, iv qd for 3 weeks relative to control; format: functional; conditions: 504 h, read-out: TGI
H22 [30] = assay: Antitumor activity against […] cells xenografted in iv dosed ICR mouse assessed as tumor growth inhibition administered qd for 3 weeks; format: functional, organism-based
Mus musculus [31] = assay: Toxicity in ICR mouse xenografted with […] cells assessed as body weight at 60 mg/kg, iv administered qd for 3 weeks (reference value: 22.9 +/- 0.4 g); format: organism-based; conditions: in vivo, 504 h
Mus musculus [32] = assay: Toxicity in ICR mouse xenografted with […] cells assessed as body weight at 30 mg/kg, iv administered qd for 3 weeks (reference value: 22.9 +/- 0.4 g); format: organism-based; conditions: in vivo, 504 h

RAC-alpha serine/threonine-protein kinase (Homo sapiens), sequence (P31749 whole entry): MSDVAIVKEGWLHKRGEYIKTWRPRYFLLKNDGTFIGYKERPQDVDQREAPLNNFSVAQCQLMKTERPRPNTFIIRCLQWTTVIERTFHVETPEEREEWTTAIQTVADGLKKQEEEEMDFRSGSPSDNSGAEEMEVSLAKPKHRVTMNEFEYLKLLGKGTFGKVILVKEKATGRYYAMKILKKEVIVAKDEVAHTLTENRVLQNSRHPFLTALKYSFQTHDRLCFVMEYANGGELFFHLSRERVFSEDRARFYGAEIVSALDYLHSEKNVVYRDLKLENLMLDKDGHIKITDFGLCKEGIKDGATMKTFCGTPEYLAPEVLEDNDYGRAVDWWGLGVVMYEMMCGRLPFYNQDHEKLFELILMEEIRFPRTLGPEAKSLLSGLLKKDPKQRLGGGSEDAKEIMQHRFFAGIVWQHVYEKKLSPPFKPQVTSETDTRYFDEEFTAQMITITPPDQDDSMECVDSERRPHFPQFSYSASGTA

Compound: C=C[C@]1(C)CC[C@@H](C(=C)COC(=O)CCC(=O)OCCOc2no[n+]([O-])c2S(=O)(=O)c2ccccc2)C[C@H]1C(=C)C
- inhibition (Homo sapiens [1]): Dose-dependent effect
- IC50 (SGC-7901): 3.18 µM
- IC50 (HeLa): 4.94 µM
- IC50 [2]: 0.002 µM
- IC50 (L02): 30.4 µM
- Activity [3]: Active
- Activity (U-87MG ATCC): Dose-dependent effect
- Activity [4]: 50.4%
- Activity [5]: 34.97%
- Activity [6]: 26.96%
- Activity [7]: 22.91%
- Activity [8]: 33.35%
- Activity [9]: 47.99%
- Activity [10]: 26.69%
- Activity [11]: 31.68%
- Activity [12]: 25.04%
- viability at 0.0005 µM [13]: 80.4%
- viability at 0.001 µM [14]: 64.9%
- viability at 0.002 µM [15]: 46%
- Activity [16]: 8.16%
- Activity [17]: 25.03%
- Activity [18]: 34.63%
- Activity [19]: 10.16%
- Activity [20]: 9.91%
- Activity [21]: 19.07%
- Activity [22]: 1.25%
- Activity [23]: 0.19%
- Activity [24]: 0.25%
- inhibition (Homo sapiens [25]): Dose-dependent effect
- inhibition (Homo sapiens [26]): Dose-dependent effect
- inhibition [27]: Dose-dependent effect
- inhibition in vivo at 30 mg/kg (H22 [28]): 50.2%
- inhibition in vivo at 60 mg/kg (H22 [29]): 64.8%
- TGI (H22 [30]): Dose-dependent effect
- Activity (Mus musculus [31]): 20.9 g
- Activity (Mus musculus [32]): 21.6 g

Compound: C=C[C@]1(C)CC[C@@H](C(=C)COC(=O)CCC(=O)OCCOCCOc2no[n+]([O-])c2S(=O)(=O)c2ccccc2)C[C@H]1C(=C)C
- IC50 (SGC-7901): 4.66 µM
- IC50 (HeLa): 5.78 µM
- IC50 [2]: 0.024 µM

Compound: C=C[C@]1(C)CC[C@@H](C(=C)COC(=O)CNC(=O)CCC(=O)OCCCCOc2no[n+]([O-])c2S(=O)(=O)c2ccccc2)C[C@H]1C(=C)C
- IC50 (SGC-7901): 15.3 µM
- IC50 (HeLa): 10.2 µM
- IC50 [2]: 0.173 µM

Compound: C=C[C@]1(C)CC[C@@H](C(=C)COC(=O)[C@H](Cc2ccccc2)NC(=O)CCC(=O)OCCCCOc2no[n+]([O-])c2S(=O)(=O)c2ccccc2)C[C@H]1C(=C)C
- IC50 (SGC-7901): 9.97 µM
- IC50 (HeLa): 10.8 µM
- IC50 [2]: 0.061 µM

Compound: C=C[C@]1(C)CC[C@@H](C(=C)C)C[C@H]1C(=C)C
- IC50 (SGC-7901): 236 µM
- IC50 (HeLa): 214 µM
- IC50 [2]: 180 µM
- inhibition in vivo at 60 mg/kg (H22 [29]): 49.6%
- Activity (Mus musculus [31]): 20 g

Compound: C=C[C@]1(C)CC[C@@H](C(=C)CO)C[C@H]1C(=C)C
- IC50 [2]: 198 µM

Compound: C=C[C@]1(C)CC[C@@H](C(=C)COC(=O)[C@@H](N)CC(=O)OCCCCOc2no[n+]([O-])c2S(=O)(=O)c2ccccc2)C[C@H]1C(=C)C
- IC50 (SGC-7901): 2.92 µM
- IC50 (HeLa): 3.64 µM
- IC50 [2]: 0.124 µM
- Activity [3]: Active

Compound: C=C[C@]1(C)CC[C@@H](C(=C)COC(=O)c2ccccc2C(=O)OCCCCOc2no[n+]([O-])c2S(=O)(=O)c2ccccc2)C[C@H]1C(=C)C
- IC50 (SGC-7901): 27.8 µM
- IC50 (HeLa): 21.9 µM
- IC50 [2]: 0.081 µM
- Activity [3]: inactive

Compound: C=C[C@]1(C)CC[C@@H](C(=C)COC(=O)CCC(=O)OCCCCCCOc2no[n+]([O-])c2S(=O)(=O)c2ccccc2)C[C@H]1C(=C)C
- IC50 (SGC-7901): 22.9 µM
- IC50 (HeLa): 23.2 µM
- IC50 [2]: 0.154 µM
- Activity [3]: inactive

Compound: C=C[C@]1(C)CC[C@@H](C(=C)COC(=O)[C@H](C)NC(=O)CCC(=O)OCCCCOc2no[n+]([O-])c2S(=O)(=O)c2ccccc2)C[C@H]1C(=C)C
- IC50 (SGC-7901): 11.8 µM
- IC50 (HeLa): 10.9 µM
- IC50 [2]: 0.114 µM

Compound: C=C[C@]1(C)CC[C@@H](C(=C)COC(=O)CCC(=O)OCCCCOc2no[n+]([O-])c2S(=O)(=O)c2ccccc2)C[C@H]1C(=C)C
- IC50 (SGC-7901): 8.76 µM
- IC50 (HeLa): 10.9 µM
- IC50 [2]: 0.007 µM

Compound: C=C[C@]1(C)CC[C@@H](C(=C)COC(=O)[C@@H]2CCCN2C(=O)CCC(=O)OCCCCOc2no[n+]([O-])c2S(=O)(=O)c2ccccc2)C[C@H]1C(=C)C
- IC50 (SGC-7901): 9.49 µM
- IC50 (HeLa): 11.2 µM
- IC50 [2]: 0.055 µM

Compound: C=C[C@]1(C)CC[C@@H](C(=C)COC(=O)CCNC(=O)CCC(=O)OCCCCOc2no[n+]([O-])c2S(=O)(=O)c2ccccc2)C[C@H]1C(=C)C
- IC50 (SGC-7901): 7.78 µM
- IC50 (HeLa): 8.86 µM
- IC50 [2]: 0.058 µM

Compound: C=C[C@]1(C)CC[C@@H](C(=C)COC(=O)[C@@H](NC(=O)CCC(=O)OCCCCOc2no[n+]([O-])c2S(=O)(=O)c2ccccc2)[C@@H](C)CC)C[C@H]1C(=C)C
- IC50 (SGC-7901): 3.66 µM
- IC50 (HeLa): 4.25 µM
- IC50 [2]: 0.01 µM
- Activity [3]: Active

Compound: O=C(O)CCC(=O)OCCOc1c(S(=O)(=O)c2ccccc2)no[n+]1[O-]
- IC50 [2]: 32.2 µM

Compound: C=C[C@]1(C)CC[C@@H](C(=C)COC(=O)CCC(=O)OCC#CCOc2no[n+]([O-])c2S(=O)(=O)c2ccccc2)C[C@H]1C(=C)C
- IC50 (SGC-7901): 4.97 µM
- IC50 (HeLa): 3.78 µM
- IC50 [2]: 0.085 µM
